Measurements reported in PubChem BioAssay AID2060901 (Molecular Pharmacology Branch, DTP, NCI, 2025).

System: 422866-222-R5-J1-PDC complex spheroids viability
Test: Anticancer human tumor 422866-222-R5-J1-PDC patient-derived pancreatic adenocarcinoma cell line growth inhibition [RAS]
Conditions: for IC50: curve of first compound; for viability, T/C: stronger effect = lower value
Method in brief: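 Multi-cell-type spheroids: tumor cells plus HUVEC endothelial cells and mesenchymal stem cells. RAS-pathway inhibitors were combined with targeted agents, each dosed in half-log steps down from clinical Cmax, or from 10 microM when Cmax was unknown.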

[1] = second compound 0.0316 µM, first compound 0.0316 µM
[2] = second compound 0.0316 µM, first compound 0.1 µM
[3] = second compound 0.0316 µM, first compound 0.316 µM
[4] = second compound 0.0316 µM, first compound 1 µM
[5] = second compound 0.1 µM, first compound 0.0316 µM
[6] = second compound 0.1 µM, first compound 0.1 µM
[7] = second compound 0.1 µM, first compound 0.316 µM
[8] = second compound 0.1 µM, first compound 1 µM
[9] = second compound 0.316 µM, first compound 0.0316 µM
[10] = second compound 0.316 µM, first compound 0.1 µM
[11] = second compound 0.316 µM, first compound 0.316 µM
[12] = second compound 0.316 µM, first compound 1 µM
[13] = second compound 1 µM, first compound 0.0316 µM
[14] = second compound 1 µM, first compound 0.1 µM
[15] = second compound 1 µM, first compound 0.316 µM
[16] = second compound 1 µM, first compound 1 µM
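Further: spheroids exposed to compounds for 7 days.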
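Wherever viability, T/C is given: 100% = DMSO vehicle control viability.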

CC(Nc1ccc2c(c1)OCCn1cc(N3C(=O)OCC3C(F)F)nc1-2)C(N)=O (centres undefined) + C=CC(=O)N1CCN(c2nc(OCC3CCCN3C)nc3c(F)c(-c4nc(N)cc(C)c4C(F)(F)F)c(Cl)cc23)C(C)C1
IC50 (second compound 0.00316 µM): < 31.6 nM
IC50 (second compound 0.01 µM): < 31.6 nM
IC50 (second compound 0.0316 µM): < 31.6 nM
IC50 (second compound 0.1 µM): < 31.6 nM
IC50 (second compound 0.316 µM): < 31.6 nM
IC50 (second compound 1 µM): < 31.6 nM
viability, T/C (second compound 0.00316 µM, first compound 0.0316 µM): 20.8%
viability, T/C (second compound 0.00316 µM, first compound 0.1 µM): 19.9%
viability, T/C (second compound 0.00316 µM, first compound 0.316 µM): 12.6%
viability, T/C (second compound 0.00316 µM, first compound 1 µM): 11%
viability, T/C (second compound 0.00316 µM, first compound 3.16 µM): 7.97%
viability, T/C (second compound 0.00316 µM, first compound 10 µM): 7.01%
viability, T/C (second compound 0.01 µM, first compound 0.0316 µM): 19.1%
viability, T/C (second compound 0.01 µM, first compound 0.1 µM): 18%
viability, T/C (second compound 0.01 µM, first compound 0.316 µM): 13.5%
viability, T/C (second compound 0.01 µM, first compound 1 µM): 6.65%
viability, T/C (second compound 0.01 µM, first compound 3.16 µM): 7.17%
viability, T/C (second compound 0.01 µM, first compound 10 µM): 4.82%
viability, T/C [1]: 24.5%
viability, T/C [2]: 14.3%
viability, T/C [3]: 9.64%
viability, T/C [4]: 7.15%
viability, T/C (second compound 0.0316 µM, first compound 3.16 µM): 5.78%
viability, T/C (second compound 0.0316 µM, first compound 10 µM): 4.99%
viability, T/C [5]: 14.6%
viability, T/C [6]: 10.9%
viability, T/C [7]: 9.29%
viability, T/C [8]: 8.93%
viability, T/C (second compound 0.1 µM, first compound 3.16 µM): 5.79%
viability, T/C (second compound 0.1 µM, first compound 10 µM): 5.64%
viability, T/C [9]: 18.3%
viability, T/C [10]: 11%
viability, T/C [11]: 9.82%
viability, T/C [12]: 6.95%
viability, T/C (second compound 0.316 µM, first compound 3.16 µM): 6.91%
viability, T/C (second compound 0.316 µM, first compound 10 µM): 7.16%
viability, T/C [13]: 16.5%
viability, T/C [14]: 15.8%
viability, T/C [15]: 9.93%
viability, T/C [16]: 7.52%
viability, T/C (second compound 1 µM, first compound 3.16 µM): 6.84%
viability, T/C (second compound 1 µM, first compound 10 µM): 7.05%

CCN1CCN(Cc2ccc(Nc3ncc(F)c(-c4cc(F)c5nc(C)n(C(C)C)c5c4)n3)nc2)CC1 + C#Cc1c(F)ccc2cc(O)cc(-c3ncc4c(N5CC6CCC(C5)N6)nc(OCC56CCCN5CC(F)C6)nc4c3F)c12
IC50 (second compound 0.0316 µM): > 1000 nM
IC50 (second compound 0.1 µM): > 1000 nM
IC50 (second compound 0.316 µM): > 1000 nM
IC50 (second compound 1 µM): < 3.16 nM
IC50 (second compound 3.16 µM): < 3.16 nM
IC50 (second compound 10 µM): < 3.16 nM
viability, T/C (second compound 0.0316 µM, first compound 0.00316 µM): 79%
viability, T/C (second compound 0.0316 µM, first compound 0.01 µM): 103%
viability, T/C [1]: 88%
viability, T/C [2]: 59.5%
viability, T/C [3]: 69.3%
viability, T/C [4]: 69.7%
viability, T/C (second compound 0.1 µM, first compound 0.00316 µM): 87.2%
viability, T/C (second compound 0.1 µM, first compound 0.01 µM): 86.3%
viability, T/C [5]: 65.3%
viability, T/C [6]: 62.4%
viability, T/C [7]: 59%
viability, T/C [8]: 77.4%
viability, T/C (second compound 0.316 µM, first compound 0.00316 µM): 73.3%
viability, T/C (second compound 0.316 µM, first compound 0.01 µM): 66.4%
viability, T/C [9]: 63.3%
viability, T/C [10]: 55%
viability, T/C [11]: 48.5%
viability, T/C [12]: 73.1%
viability, T/C (second compound 1 µM, first compound 0.00316 µM): 48.3%
viability, T/C (second compound 1 µM, first compound 0.01 µM): 51.5%
viability, T/C [13]: 43%
viability, T/C [14]: 33.5%
viability, T/C [15]: 35.4%
viability, T/C [16]: 55.8%
viability, T/C (second compound 3.16 µM, first compound 0.00316 µM): 28.2%
viability, T/C (second compound 3.16 µM, first compound 0.01 µM): 32%
viability, T/C (second compound 3.16 µM, first compound 0.0316 µM): 27.7%
viability, T/C (second compound 3.16 µM, first compound 0.1 µM): 28%
viability, T/C (second compound 3.16 µM, first compound 0.316 µM): 35.2%
viability, T/C (second compound 3.16 µM, first compound 1 µM): 42.1%
viability, T/C (second compound 10 µM, first compound 0.00316 µM): 23.2%
viability, T/C (second compound 10 µM, first compound 0.01 µM): 22.8%
viability, T/C (second compound 10 µM, first compound 0.0316 µM): 21.9%
viability, T/C (second compound 10 µM, first compound 0.1 µM): 19.4%
viability, T/C (second compound 10 µM, first compound 0.316 µM): 25.7%
viability, T/C (second compound 10 µM, first compound 1 µM): 35.2%
